Measurements taken from patent US20250388574A1, “HETEROCYCLIC COMPOUNDS AS TRIGGERING RECEPTOR EXPRESSED ON MYELOID CELLS 2 AGONISTS AND METHODS OF USE” (AMGEN INC., priority 2020, published 2025).

Legend:
hTREM2 [1] = target: T1, hTREM2 (Homo sapiens, UniProt Q9NZC2); assay: Phospho-Syk AlphaLisa assay in HEK293T-hTREM2 cells expressing human TREM2 and DAP12 (Example A2); assay type: cell-based; set-up: expressed in transfected cells; host or cells: HEK293T-hTREM2 cells; details: HEK293 cells, Syk phosphorylation, Examples 276-283
Protocol: Measurement of TREM2 agonist potency was done using a HEK cell line expressing human TREM2 and DAP12 (HEK293T-hTREM2 cells). Binding of small molecules to, and activation of, TREM2 increases the phosphorylation of Syk. The resultant levels of Syk phosphorylation were measured using a commercial AlphaLisa reagent kit. To perform the assay, HEK-hTREM2 cells were plated at 14,000 cells per well in a 384 well plate, in 25 μL of complete growth media and incubated at 37° C., 5% CO2 for 20-24 hours. Prior to the assay, test compounds were diluted in the 384 well plates in assay buffer and allowed to equilibrate for 30 minutes. Growth media was removed from cell plates by inversion on blotting paper, and 25 μL of test compounds in assay buffer was added to cells. Cells were incubated for 45 minutes at room temperature. After 45 minutes, assay buffer was removed and 10 μL of lysis buffer was added. Plates were shaken for 20 minutes at 350 RPM at room temperature. After complete lysis, AlphaLisa reagents were added to the lysate, and fluorescence intensity was measured using a Perkin Elmer Envision plate reader. Intensities were used to generate a standard curve, and % activation was calculated. Curve fitting was performed using Prism v9 software, log(agonist) vs response—variable slope (four parameters), and EC50s were calculated from the curve fit.
The results presented in Table 11 have been generated with the in vitro assay described above for Examples 276-283. This assay may be used to test any of the compounds described herein to assess and characterize a compound's ability to act as an agonist of TREM2.

hTREM2 [2] = target: T1, hTREM2; assay: Phospho-Syk AlphaScreen/AlphaLISA assay in TREM2 and DAP12 overexpressing HEK293 cells (Example A1); assay type: cell-based; set-up: expressed in transfected cells; details: HEK293 cells; for EC50: read-out: hTREM2 EC50
Summary of the method: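 Single-cell-cloned HEK293 stably overexpressing TREM2 and DAP12, plated 20,000 cells/well for 20 h, then exposed to compounds (1% DMSO) 45 min at room temperature. Lysates probed for phospho-Syk by AlphaLISA sandwich (anti-pSyk, biotinylated anti-Syk); signal normalized to percent of control (100 nM anti-TREM2 antibody vs isotype) and fitted by 4-parameter logistic.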

T1 sequence (Q9NZC2 19-230): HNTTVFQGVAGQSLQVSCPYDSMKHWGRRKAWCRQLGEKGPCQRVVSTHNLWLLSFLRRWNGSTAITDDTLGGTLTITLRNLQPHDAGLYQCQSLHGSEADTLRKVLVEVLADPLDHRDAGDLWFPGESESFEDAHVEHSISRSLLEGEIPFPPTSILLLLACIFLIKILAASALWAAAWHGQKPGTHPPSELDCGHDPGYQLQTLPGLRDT
T1 sequence (O43914 22-113 partner): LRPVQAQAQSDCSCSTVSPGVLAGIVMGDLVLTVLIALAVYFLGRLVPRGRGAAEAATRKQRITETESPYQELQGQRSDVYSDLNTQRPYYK

Row | Compound | EC50 (hTREM2 [1]) [nM] | Emax (hTREM2 [2]) | EC50 (hTREM2 [2]) [nM]
1 | Cc1cc(C2CN(c3cc4nc(C)n(C)c(=O)c4c(-c4ccc(C(F)(F)F)nc4)n3)CCO2)ccn1 (stereo not drawn) [Example 280, 2,3-dimethyl-7-(2-(2-methylpyridin-4-yl)morpholino)-5-(6-(trifluoromethyl)pyridin-3-yl)pyrido[4,3-d]pyrimidin-4(3H)-one] | < 50 | – | –
2 | Cc1cc(C2CN(c3cc4nc(C)n(C)c(=O)c4c(C45CC(C(F)(F)F)(C4)C5)n3)CCO2)ccn1 (stereo not drawn) [Example 282, 2,3-dimethyl-7-(2-(2-methylpyridin-4-yl)morpholino)-5-(3-(trifluoromethyl)bicyclo[1.1.1]pentan-1-yl)pyrido[4,3-d]pyrimidin-4(3H)-one] | < 50 | – | –
3 | Cc1cc(C2CN(c3cc4nc(C)n(C)c(=O)c4c(-c4ccc(F)cc4F)n3)CCO2)ccn1 (stereo not drawn) [Example 276, 5-(2,4-difluorophenyl)-2,3-dimethyl-7-(2-(2-methylpyridin-4-yl)morpholino)pyrido[4,3-d]pyrimidin-4(3H)-one] | < 50 | – | –
4 | Cc1cc([C@H]2C[C@@H](c3cc4nc(C)n(C)c(=O)c4c(-c4ccc(F)cc4F)n3)CCO2)ccn1 (racemic) [Example 278, 5-(2,4-difluorophenyl)-2,3-dimethyl-7-(2-(2-methylpyridin-4-yl)tetrahydro-2H-pyran-4-yl)pyrido[4,3-d]pyrimidin-4(3H)-one] | 50 to 500 | – | –
5 | COc1cc(C2CN(c3cc4nc(C)n(C)c(=O)c4c(C45CC(C(F)(F)F)(C4)C5)n3)CCO2)ccn1 (stereo not drawn) [Example 283, 7-(2-(2-methoxypyridin-4-yl)morpholino)-2,3-dimethyl-5-(3-(trifluoromethyl)bicyclo[1.1.1]pentan-1-yl)pyrido[4,3-d]pyrimidin-4(3H)-one] | 50 to 500 | – | –
6 | Cc1cc([C@H]2C[C@@H](c3cc4nc(C)n(C)c(=O)c4c(C45CC(C(F)(F)F)(C4)C5)n3)CCO2)ccn1 (racemic) [Example 281, 2,3-dimethyl-7-(2-(2-methylpyridin-4-yl)tetrahydro-2H-pyran-4-yl)-5-(3-(trifluoromethyl)bicyclo[1.1.1]pentan-1-yl)pyrido[4,3-d]pyrimidin-4(3H)-one] | < 50 | – | –
7 | Cc1cc([C@H]2C[C@@H](c3cc4nc(C)n(C)c(=O)c4c(-c4ccc(C(F)(F)F)nc4)n3)CCO2)ccn1 [Example 277, 2,3-dimethyl-7-(2-(2-methylpyridin-4-yl)tetrahydro-2H-pyran-4-yl)-5-(6-(trifluoromethyl)pyridin-3-yl)pyrido[4,3-d]pyrimidin-4(3H)-one] | 50 to 500 | – | –
8 | COc1cc(C2CN(c3cc4nc(C)n(C)c(=O)c4c(-c4ccc(F)cc4F)n3)CCO2)ccn1 (stereo not drawn) [Example 279, 5-(2,4-difluorophenyl)-7-(2-(2-methoxypyridin-4-yl)morpholino)-2,3-dimethylpyrido[4,3-d]pyrimidin-4(3H)-one] | < 50 | – | –
9 | CCCn1c(C)nc2cc(N3CCO[C@H](c4ccccc4)C3)nc(-c3ccc(Cl)cc3F)c2c1=O [Example 186, (R)-5-(4-chloro-2-fluorophenyl)-2-methyl-7-(2-phenylmorpholino)-3-propylpyrido[4,3-d]pyrimidin-4(3H)-one] | – | ++++ (Emax>300) | 500 to 3000
10 | Cc1nc2cc(N3CCO[C@H](c4cccc(OC(F)(F)F)c4)C3)nc(-c3ccc(Cl)cc3F)c2c(=O)n1C (single isomer, unassigned) [Example 97] | – | ++++ (Emax>300) | 500 to 3000
11 | Cc1nc2cc(N3CCO[C@H](c4ccc(OCC(F)(F)F)nc4)C3)nc(-c3ccc(Cl)cc3F)c2c(=O)n1C [Example 235, (R)-5-(4-chloro-2-fluorophenyl)-2,3-dimethyl-7-(2-(6-(2,2,2-trifluoroethoxy)pyridin-3-yl)morpholino)pyrido[4,3-d]pyrimidin-4(3H)-one] | – | ++++ (Emax>300) | 500 to 3000
12 | Cc1nc2cc(N3CCOC(c4ccc(C#N)cc4)C3)nc(-c3ccc(Cl)cc3F)c2c(=O)n1C (stereo not drawn) [Example 90, 4-(4-(5-(4-chloro-2-fluorophenyl)-2,3-dimethyl-4-oxo-3,4-dihydropyrido [4,3-d]pyrimidin-7-yl)-2-morpholinyl)benzonitrile] | – | ++++ (Emax>300) | 50 to 500
13 | Cc1nc2cc(N3CCO[C@H](c4noc(C5CC5)n4)C3)nc(-c3ccc(Cl)cc3F)c2c(=O)n1C [Example 201, (S)-5-(4-chloro-2-fluorophenyl)-7-(2-(5-cyclopropyl-1,2,4-oxadiazol-3-yl)morpholino)-2,3-dimethylpyrido[4,3-d]pyrimidin-4(3H)-one] | – | ++++ (Emax>300) | 50 to 500
14 | Cc1nc2cc(N3CCO[C@H](c4cnn(C)c4)C3)nc(-c3ncc(Cl)cc3F)c2c(=O)n1C [Example 217, (R)-5-(5-chloro-3-fluoropyridin-2-yl)-2,3-dimethyl-7-(2-(1-methyl-1H-pyrazol-4-yl)morpholino)pyrido[4,3-d]pyrimidin-4(3H)-one] | – | +++ (Emax>200 and ≤300) | 3000 to 100000
15 | Cc1nc2cc(N3CCO[C@@H](c4cnn(C(F)CO)c4)C3)nc(-c3ccc(Cl)cc3F)c2c(=O)n1C (stereo partly drawn) [Example 130, 5-(4-chloro-2-fluorophenyl)-7-((2S)-2-(1-(1-fluoro-2-hydroxyethyl)-1H-pyrazol-4-yl)-4-morpholinyl)-2,3-dimethylpyrido[4,3-d]pyrimidin-4(3H)-one] | – | – | 50 to 500
16 | Cc1nc2cc(N3CCO[C@@H](c4ccnc(C(F)(F)F)c4)C3)nc(-c3ccc(Cl)cc3F)c2c(=O)n1C [Example 266, (S)-5-(4-chloro-2-fluorophenyl)-2,3-dimethyl-7-(2-(2-(trifluoromethyl)pyridin-4-yl)morpholino)pyrido[4,3-d]pyrimidin-4(3H)-one] | – | +++ (Emax>200 and ≤300) | < 50
17 | Cc1nc2cc(N3CCO[C@H](c4ccncc4)C3)nc(-c3ccc(Cl)cc3F)c2c(=O)n1C [Example 226, (R)-5-(4-chloro-2-fluorophenyl)-2,3-dimethyl-7-(2-(pyridin-4-yl)morpholino)pyrido[4,3-d]pyrimidin-4(3H)-one] | – | ++++ (Emax>300) | 50 to 500
18 | Cc1nc2cc(N3C[C@H](C)O[C@@H](c4ccsc4)C3)nc(-c3ccc(Cl)cc3F)c2c(=O)n1C (single isomer, unassigned) [Example 71] | – | ++++ (Emax>300) | 50 to 500
